Like-named read-outs stand apart in the source and are kept apart here.
What was measured:
[1] = system: NLRP3 inflammasome; conditions: limited potency, nonspecific; cited from earlier work
[2] = biological target: T1, NLRP3 (Homo sapiens, UniProt Q96P20); test: THP-1 cells pyroptosis assay; type: cell-based; set-up: Seed THP-1 cells (25,000 cells/well) containing 1.0 μg/ml LPS; host or cells: THP-1 cells, LPS-primed, nigericin-stimulated; conditions: LPS 1 μg/ml, nigericin 5 μM, resazurin read-out
Method in brief: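 THP-1 cells (25,000/well) primed with 1 μg/ml LPS in serum-free RPMI, given compound (8-point half-log, 10 μM top, 0.1% DMSO) for 3 hrs, then nigericin 5 μM for 1 hr at 37° C. Viability of remaining cells read by resazurin (100 μM, 1–2 hrs) fluorescence; IC50 from 4-parameter fit.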

[3] = PK protocol (intravenous and oral administration); type: in vivo, male Sprague Dawley rats; conditions: male, Sprague Dawley, plasma, rat; for Vd: read-out: Vdss
Protocol: Pharmacokinetic parameters were determined in male Sprague Dawley rats (Charles River, UK, 250-350 g; or Vital River Laboratory Animal Technology Co Ltd, Beijing, China, 7-9 weeks old). Animals were individually housed during the study and maintained under a 12 h light/dark cycle. Animals had free access to food and water except that some orally dosed animals were food deprived overnight prior to the study. For intravenous administration, compounds were formulated as a solution in water or DMSO:PBS [10:90] in 2 mL/kg dosing volume and administered via tail vein. For oral administration, compounds were formulated as a solution in water or DMSO:water [10:90] in 5 mL/kg dosing volume and administered orally.
Serial blood samples (about 120-300 μL) were taken from each animal at each of 8 time-points post dose (0.083, 0.25, 0.5, 1, 2, 4, 8 and 24 h) or at each of 12 time-points post dose (0.03, 0.1, 0.17, 0.25, 0.5, 1, 2, 4, 6, 8, 12 and 24 h) or pre-dose and at each of 9 time-points post dose (0.25, 0.5, 1, 2, 4, 6, 8, 12 and 24 h). Samples were held on ice for no longer than 30 minutes before centrifugation (10,000 rpm (8,385 g) for 3 minutes; or 5,696 rpm (3,000 g) for 15 minutes) for plasma generation. Plasma was frozen on dry ice prior to bioanalysis. PK parameters were generated from LC-MS/MS data using Dotmatics or Phoenix WinNonlin 6.3 software.

[4] = biological target: T1, NLRP3; test: Human whole blood IL1β release assay; type: cell-based; set-up: Plate out 80 μl of whole blood containing 1 μg/ml of LPS; from tissue; host or cells: human whole blood from healthy donors, LPS-primed, nigericin-stimulated; conditions: LPS 1 μg/ml, nigericin 10 μM, IL-1β AlphaLisa, read-out: HWB IC50
Method in brief: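 Donor Li-heparin whole blood with 1 μg/ml LPS preincubated 3 h at 37 °C with compound (8-point half-log series, 10 μM top; 0.1% DMSO). Nigericin (10 μM final) added for 1 h, then supernatant IL-1β measured by AlphaLISA. IC50 from 4-parameter variable-slope fit.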

T1 sequence (Q96P20 whole entry): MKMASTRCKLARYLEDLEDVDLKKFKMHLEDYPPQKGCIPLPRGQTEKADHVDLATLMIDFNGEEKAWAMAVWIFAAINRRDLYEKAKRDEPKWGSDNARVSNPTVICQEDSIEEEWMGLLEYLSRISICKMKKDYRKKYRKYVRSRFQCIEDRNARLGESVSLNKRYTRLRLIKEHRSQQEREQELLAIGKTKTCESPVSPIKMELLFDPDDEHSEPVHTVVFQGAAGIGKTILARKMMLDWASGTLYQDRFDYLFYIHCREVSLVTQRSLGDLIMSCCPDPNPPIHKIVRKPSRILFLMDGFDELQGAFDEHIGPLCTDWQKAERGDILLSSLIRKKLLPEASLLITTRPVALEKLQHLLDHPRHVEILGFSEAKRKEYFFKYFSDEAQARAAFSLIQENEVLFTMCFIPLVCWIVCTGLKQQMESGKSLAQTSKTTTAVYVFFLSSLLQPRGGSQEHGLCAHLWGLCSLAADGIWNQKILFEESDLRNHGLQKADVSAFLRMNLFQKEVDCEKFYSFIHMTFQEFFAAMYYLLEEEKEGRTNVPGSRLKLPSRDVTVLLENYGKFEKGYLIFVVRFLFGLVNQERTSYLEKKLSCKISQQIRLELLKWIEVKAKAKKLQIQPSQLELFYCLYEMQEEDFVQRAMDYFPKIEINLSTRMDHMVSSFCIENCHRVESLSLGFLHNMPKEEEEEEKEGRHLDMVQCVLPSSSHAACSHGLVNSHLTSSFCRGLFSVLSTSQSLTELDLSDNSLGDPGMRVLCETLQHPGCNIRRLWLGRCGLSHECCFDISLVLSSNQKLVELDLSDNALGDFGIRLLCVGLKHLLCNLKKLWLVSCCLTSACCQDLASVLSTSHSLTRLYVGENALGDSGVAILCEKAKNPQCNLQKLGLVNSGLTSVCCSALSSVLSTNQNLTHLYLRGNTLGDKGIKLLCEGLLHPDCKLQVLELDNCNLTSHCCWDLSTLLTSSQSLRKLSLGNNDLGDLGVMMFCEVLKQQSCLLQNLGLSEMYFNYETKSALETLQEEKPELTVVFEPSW

Row | Compound | IC50 [2] | IC50 [4] | AUC ([3]; intravenous, dose 1 mg/kg) | clearance ([3]; intravenous, dose 1 mg/kg) | half-life ([3]; intravenous, dose 1 mg/kg) | Vd ([3]; intravenous, dose 1 mg/kg) | other results
1 | O=[N+]([O-])C=Cc1ccc2c(c1)OCO2 [3,4-methylenedioxy-β-nitrostyrene] |  |  |  |  |  |  | NLRP3 inhibition (potency in words) [1]: weak
2 | CCn1nc(S(=O)(=O)NC(=O)Nc2c3c(cc4c2CCC4)CCC3)cc1C1(OC)COC1 [Example 45, 1-Ethyl-N-((1,2,3,5,6,7-hexahydro-s-indacen-4-yl)carbamoyl)-5-(3-methoxyoxetan-3-yl)-1H-pyrazole-3-sulfonamide] | < 40 nM | < 400 nM |  |  |  |  | AUC ([3]; intravenous, dose 2.99 mg/kg): 2320 ng·h/mL; clearance ([3]; intravenous, dose 2.99 mg/kg): 21.6 mL/min/kg; half-life ([3]; intravenous, dose 2.99 mg/kg): 0.8 h; Vd ([3]; intravenous, dose 2.99 mg/kg): 1.11 L/kg
3 | CCn1nc(S(=O)(=O)NC(=O)Nc2c3c(cc4c2CCC4)CCC3)cc1C1(O)COC1 [Example 46, 1-Ethyl-N-((1,2,3,5,6,7-hexahydro-s-indacen-4-yl)carbamoyl)-5-(3-hydroxyoxetan-3-yl)-1H-pyrazole-3-sulfonamide] | < 40 nM | < 400 nM |  |  |  |  | AUC ([3]; intravenous, dose 1.42 mg/kg): 2380 ng·h/mL; clearance ([3]; intravenous, dose 1.42 mg/kg): 10 mL/min/kg; half-life ([3]; intravenous, dose 1.42 mg/kg): 1.6 h; Vd ([3]; intravenous, dose 1.42 mg/kg): 0.56 L/kg
4 | COC1(c2cc(S(=O)(=O)NC(=O)Nc3c4c(cc5c3CCC5)CCC4)nn2C)CCOC1 (stereo not shown) [Example 48, N-((1,2,3,5,6,7-Hexahydro-s-indacen-4-yl)carbamoyl)-5-(3-methoxytetrahydrofuran-3-yl)-1-methyl-1H-pyrazole-3-sulfonamide] | < 40 nM | < 400 nM | 948 ng·h/mL | 17.6 mL/min/kg | 2.9 h | 1.74 L/kg | 
5 | Cn1nc(S(=O)(=O)NC(=O)Nc2c3c(cc4c2CCC4)CCC3)cc1C1(O)COC1 [Example 51, N-((1,2,3,5,6,7-Hexahydro-s-indacen-4-yl)carbamoyl)-5-(3-hydroxyoxetan-3-yl)-1-methyl-1H-pyrazole-3-sulfonamide] | 40 to 160 nM | < 400 nM | 1860 ng·h/mL | 9 mL/min/kg | 6.6 h | 1.18 L/kg | 
6 | COC1(c2cc(S(=O)(=O)NC(=O)Nc3c4c(cc5c3CCC5)CCC4)nn2C)COC1 [Example 53, N-((1,2,3,5,6,7-Hexahydro-s-indacen-4-yl)carbamoyl)-5-(3-methoxyoxetan-3-yl)-1-methyl-1H-pyrazole-3-sulfonamide] | < 40 nM | < 400 nM | 1280 ng·h/mL | 13.3 mL/min/kg | 11.5 h | 3.48 L/kg | 
7 | COCCN(CCOC)C(=O)c1cc(S(=O)(=O)NC(=O)Nc2c3c(cc4c2CCC4)CCC3)nn1C [Example 72, 3-(N-((1,2,3,5,6,7-Hexahydro-s-indacen-4-yl)carbamoyl)sulfamoyl)-N,N-bis(2-methoxyethyl)-1-methyl-1H-pyrazole-5-carboxamide] | 40 to 160 nM | 400 to 800 nM |  |  |  |  | AUC ([3]; intravenous, dose 2.88 mg/kg): 330 ng·h/mL; clearance ([3]; intravenous, dose 2.88 mg/kg): 149 mL/min/kg; half-life ([3]; intravenous, dose 2.88 mg/kg): 0.2 h; Vd ([3]; intravenous, dose 2.88 mg/kg): 1.84 L/kg
8 | COCCN(C)C(=O)c1cc(S(=O)(=O)NC(=O)Nc2c3c(cc4c2CCC4)CCC3)nn1C [Example 73, 3-(N-((1,2,3,5,6,7-Hexahydro-s-indacen-4-yl)carbamoyl)sulfamoyl)-N-(2-methoxyethyl)-N,1-dimethyl-1H-pyrazole-5-carboxamide] | 40 to 160 nM | 400 to 800 nM | 1160 ng·h/mL | 14.4 mL/min/kg | 2.9 h | 2.24 L/kg | AUC ([3]; oral, dose 3 mg/kg): 2420 ng·h/mL; Cmax ([3]; oral, dose 3 mg/kg): 701 ng/mL
9 | C[S+](C)[O-] [dimethyl sulfoxide (DMSO), dimethyl sulfoxide] |  |  |  |  |  |  | NLRP3 inhibition (potency in words) [1]: weak
